Results: US9290740B2, “Use of basic fibroblast growth factor in the de-differentiation of animal connective tissue cells” (Worcester Polytechnic Institute, priority 2008, dated 2016)
“And” between values parts separate entries of the source, which are not always exact repeats. Identical values can stand only once.

Tested on: adult human dermal fibroblasts (CRL-2352)
Assay: Effect of FGF2 and oxygen level on proliferation and in vitro lifespan (population doublings to senescence)
Format: cell-based
Description: Adult human fibroblasts (cell line CRL-2352) derived from connective tissue isolated from tissue derived from a below knee amputation of a person were received from American type Tissue Culture Collection (ATCC) (Manassas, Va.) as cryopreserved vials and were stored in liquid nitrogen until use. Cells were thawed at 37 C and added dropwise to 10 ml of basal culture medium (CM-1A, 45% DMEM without L-gln or phenol red (MediaTech, Manassas, Va.) with 4 mM L-Gln (MediaTech), 45% Hams F12 Medium (MediaTech), and 10% Fetalclone III (Hyclone, Logan, Utah)). The cell suspension was centrifuged at 700×g for 5 min, the medium aspirated and the pellet resuspended in fresh CM1A culture medium. Cells were seeded at a density of 0.5×106 in 10 ml of medium in T75 tissue culture flasks (BD Falcon). Cultures were carried out in a 37 C incubator in a humidified environment of 5% CO2, 5% O2, 90% N2. Cells were passaged at routine intervals at approximately 70-90% confluence using Trypsin-EDTA solution (MediaTech) diluted 1:5 in DPBS without Ca2+/Mg2+ (MediaTech). At each passage, cells were counted using a Levy Counting chamber (Hausser Scientific) and the number of population doublings calculated as log 2. For comparative studies, human recombinant FGF2 (either Invitrogen or Chemicon) was supplemented into CM1A at 4 ng/ml (medium designated CM2A) from a 100 μg/ml stock solution in DPBS (MediaTech).
Cells were passaged continuously at either 3 or 4 day intervals without interruption until in vitro senescence was reached. Two replicate T25 vessels of cells for each treatment (with or without FGF2) were seeded at each passage with 100,000 cells per vessel. The average number of population doublings (PDs) was calculated at each passage and cumulative PDs plotted versus time (days) in culture (FIG. 1).
Cells were thawed and seeded at equal density into T25 cell culture flasks (BD Falcon) and cultured at 37° C., 5% CO2, balance air (high O2); and 37° C., 5% CO2, 5% O2, 90% N2 (low O2). For each oxygen tension level, cells were also cultured with and without FGF2 (4 ng/ml). Cells were passaged at 3 or 4 day intervals, counted and 100,000 cells re-seeded at each passage. The number of population doublings at each passage was determined and cumulative population doublings compared between low and high O2 treatment groups. In addition, at day 28 of culture, FGF2 was removed from a population of cells and the culture continued to monitor the long term effect of previous culture with FGF2.
Primary adult human dermal fibroblasts from connective tissue isolated from tissue biopsy from a below knee amputation of a person were received from ATCC(CRL-2352) at passage 2. Cells were cultured in medium consisting of DMEM:Ham's F12 ([…], MediaTech) with 10% Fetalclone III (Hyclone, Logan, Utah). The DMEM (without L-Gln or phenol red) was supplemented with 4 mM fresh L-Gln (MediaTech) prior to use. Cultures were carried out in a 37° C. incubator in a humidified environment of 5% CO2, 5% O2, and 90% N2. The number of population doublings calculated as log2. Cells were seeded at 100,000 cells per T25 flask at each passage (Falcon). […] Human muscle derived fibroblasts were derived from surplus muscle tissue from the calf flexor muscle used for a surgical knee repair in an adult. Tissue was rinsed in Leibowitz L-15 medium (MediaTech) containing 10 μg/ml gentamicin (Invitrogen) and 2.5 μg/ml fungizone (Hyclone) and minced using a sterile scalpel and digested with 1800 units/ml collagenase Type IV for 1 hour at 37° C. Cell lines were established by culture at 5% O2 from the beginning and working stocks cryopreserved at passage 2.

**Q.** How did the “population doublings at senescence, low O2 with FGF2” value (FGF2 4 ng/ml, 5% O2) turn out when “FGF2: human recombinant FGF2 (Invitrogen, Chemicon or Protide), basic fibroblast growth factor” was run?
**A.** 65 PDs and 70 PDs

**Q.** And the “proliferation rate versus cells without FGF2” value (FGF2 4 ng/ml, 5% O2)?
**A.** proliferated more rapidly

**Q.** And the “additional population doublings achieved by addition of FGF2 (on average)” value (FGF2 4 ng/ml, 5% O2, until replicative senescence)?
**A.** 19 population doublings

**Q.** And the “population doublings at senescence, atmospheric oxygen with FGF2” value (FGF2 4 ng/ml, atmospheric oxygen)?
**A.** 49 PDs and 50 PDs

**Q.** What about the cell morphology (FGF2, 5% O2) of the same substance?
**A.** smaller cells with a more spindle shape

**Q.** What about the karyotype (FGF2/low oxygen-treated fibroblasts) of the same substance?
**A.** maintained normal karyotype

**Q.** And the “increase in longevity / cell passage over primary cells cultured without these conditions” value (FGF2 and low oxygen conditions)?
**A.** two fold increase

**Q.** What about the “number of passages observed” value (FGF2 and low oxygen conditions, primary cells typically about 20 to 30) of the same substance?
**A.** 70 times
